Results from patent US12661308B2, “Antimicrobial AZO compounds and uses thereof” (The Regents Of The University Of Colorado, A Body Corporate, priority 2019, dated 2026).

What was measured:
[1] = tested on: L929 mouse epithelial cells; experiment: Cytotoxicity study, MTT (Example 4); assay type: cell-based; details: 50 mg/mL coated substrates
Description: Cytotoxicity studies were performed as described previously. Riss et al., Cell Viability Assays, (Promega). Briefly, L929 mouse epithelial cells were suspended in cell culture media (DMEM, 10% FBS, 1% penicillin streptomycin) to a final concentration of 1.06×10^5 cells/mL. 1 mL of the suspension was added to each well in a 24-well plate containing the substrates and allowed to grow to confluence. Cell growth was monitored via a phase contrast inverted microscope (Leica, WLD MPS32, Germany). Once confluent, the media was aspirated off, and 500 μL of a 1 mg/mL solution of MTT reagent in DMEM media was added to each well. The plate was incubated for 4 h, and 500 μL of 20% SDS in 50% DMF was added to each well containing the MTT reagent. The plate was incubated for an additional 24 h, then removed and analyzed by an absorbance reading at λ=570 nm (FIG. 10).

[2] = tested on: Methicillin-susceptible S. aureus biofilm; experiment: Biofilm growth study, S. aureus; assay type: cell-based, Staphylococcus aureus; details: 50 mg/mL coated substrate, 24 h time-period
Description: Methicillin-susceptible S. aureus biofilms were grown from a 20 h BHI liquid culture inoculated with an S. aureus colony. The liquid culture was diluted 10^3 to a stock solution in BHI, then diluted 1:10 in BHI media containing 0.4 wt. % glucose in a 96-well plate. The plate was incubated in the dark at 37 ° C. for 24 h.
Following biofilm growth in the 96-well plate, the substrates were aseptically removed from the 96-well plate and placed in a vial containing 5 mL of 1× PBS solution. The vials were sonicated in a water bath for 10 min at 45° C., and the wells that previously contained the substrates were briefly sonicated using a probe sonicator (3 W RMS output) for 10 s per well. 200 μL aliquots of the sonicated PBS solution were placed in a 96-well plate and diluted 1:10 in each subsequent row. 20 μL aliquots of the sonicated media wells were placed in a 96-well plate containing 180 μL of PBS solution and diluted 1:10 in each subsequent row. Each column was then plated at a volume of 10 μL on a BHI agar plate in triplicate. The plates were then incubated at 37° C. and 5% CO2 for 48 h. The CFUs on each plate were counted in order to quantify the amount of biofilm remaining on the surface of the substrate and the bacteria remaining in the media after the removal of the substrate using the following equations: […]

[3] = tested on: S. mutans (ATCC 25175) biofilm; experiment: Detachment study of S. mutans biofilm on monomer-coated polymeric substrates (Example 1); assay type: cell-based, Streptococcus mutans
Description: The polymeric substrates were prepared by mixing 54 wt % methyl methacrylate (MMA), 30 wt % polymethylmethacrylate (PMMA, MW ˜35 k), and 16 wt % tetraethylene glycol dimethacrylate (TEGDMA) at 70° C. for 2 hr. After mixing, 1 wt. % azobisisobutyronitrile (AIBN) was added to the formulation as an initiator and mixed.
The mixed formulation was added to circular molds (diameter=6.5 mm) cut from a strip of rubber (thickness=0.9 mm) and pressed between two glass microscope slides. The mold was clamped together and thermally cured at 80° C. for 1.5 hr.
The polymeric substrates were coated as follows. Coating solutions were prepared having the following monomer concentrations (see FIG. 3 for structures of the monomers): 0.5 mg/mL and 50 mg/mL solutions of a phenolic acrylated azobenzene monomer (OH-AAZO), 50 mg/mL acrylated azobenzene monomer (AAZO), 50 mg/mL 4-hydroxyl benzylacrylate (HBA), 50 mg/mL 2-hydroxylethyl methacrylate (HEMA).
The coating solutions included the monomer in N,N′-dimethylformamide (DMF) along with 0.5 mg/mL of AIBN and 0.1 mg/mL of Rhodamine B as an indicator dye. Once mixed, 3 μL of each coating solution was pipetted onto one side of the polymeric substrate and spun at 1000 RPM for 1 min followed by spinning at 6000 RPM for 3 s. The coating was cured under a nail lamp (Melody Susie UV Gel Nail Polish Dryer, Model DR-301C) for at least 15 min before repeating the coating procedure on the other side.
The controlled growth of biofilms varied depending on the bacteria strain. In the case of S. mutans, a BHI agar plate was streaked with S. mutans (ATCC 25175) and allowed to incubate at 37° C. in 5% CO2 for 60 hr to isolate a single bacterial colony. The colony was inoculated in 5 mL of BHI and allowed to incubate statically in the 5% CO2 incubator for 24 hr. The stock solution was diluted 1:50 in a 96-well plate containing the substrates of interest and allowed to incubate in the 5% CO2 incubator for an additional 24 hr.
The detachment study quantified the biofilm grown on each substrate via a series of washes in 1×PBS. The substrate was irradiated using a dental lamp (FlashMax P3 Ortho™, 1900 mW/cm2, wavelength=450-470 nm) on the underside of the vial for a total of ten 3 s irradiations per side. Following the series of washes, the substrate was sonicated for 10 min to remove the residual biofilm on the substrate. The wash solutions were serial diluted, plated, and grown at 37° C. and 5% CO2 to obtain the CFU count.
Images collected from a digital microscope (Zeiss Axioplan II microscope, 630×, step size 0.1 μm) after the substrate and bacteria were treated with BACLIGHT Live/Dead stain are included in FIG. 4.

[4] = tested on: S. pyogenes (Group A strep, GAS); experiment: Growth study, S. pyogenes (Group A strep); assay type: cell-based, Streptococcus pyogenes; details: 50 mg/ML coated substrates, BHI media, 24 h time-period
Description: A single bacterial colony was inoculated in 4 mL BHI media. The colony was grown to mid-log phase (to approximately OD600=0.4), statically at 37° C., which for was approximately 4 hours for the S. agalactiae GBS, approximately 11 hours for the S. pyogenes GAS, and approximately 6 hours for the S. pneumaoniae. They were diluted 1:5 in 80% glycerol (in water) solution (4 parts culture, 1 part glycerol, for a final glycerol concentration of 16%). In a 96-well plate, each was diluted to 1:100 resulting in a final concentration of 1×10^6 CFU/mL and grown at 37° C. with 5% CO2.

C=CC(=O)Oc1ccccc1/N=N/c1ccccc1O [OH-AAZO, phenolic acrylated azobenzene]
cytocompatibility [1]: cytocompatible
antibacterial effect on S. aureus biofilm (CFUs) [2]: no discernable antibacterial effect or reduction in CFUs
antibacterial effect against S. mutans ([3]; 0.5 mg/mL coating solution, compared with 50 mg/mL coating): did not result in the same antibacterial effect
S. mutans growth on the surface of the coated substrate ([3]; 50 mg/mL coating, even prior to light/wash treatment): no growth at all
S. mutans biofilm on substrate, Live/Dead stain microscopy ([3]; prior to wash/light treatment): comparatively very little biofilm
S. pyogenes growth on coated substrate and in media [4]: did not grow on the coated substrate nor in the media
